Ends that are not written are not given here.
Columns and labels:
[1] = system: MSLN+K562 target cells (mixed 1:1 with CEA+K562); assay: Cytotoxicity test of sdCAR-T cells in vitro; type: cell-based, human; settings: for percentage content of homologous target cells MSLN+K562 (green fluorescence): fluorescence detection, versus beginning of the test
Experimental: The cytotoxicity of sdCAR-T cells was determined according to the survival rate of target cells (MSLN^+K562). The selected target cells were equal mixed cells of MSLN and CEA. […] The survival rate of MSLN target cells in each test group was calculated according to the following formula, and then the tumor killing ability of the constructed CARs-T cells in vitro could be analyzed.
1) Effector cells and mixed target cells (MSLN^+K562:CEA^+K562, 1:1) were co-incubated at a ratio of 5:2 in a U-shaped 96-well plate, RPMI1640 (10% FBS) was selected as a co-culture medium, and corresponding switching molecule s were added.
2) Culturing at 37° C. for 22 h with 5% CO2.
3) The ratio of MSLN and CEA tumor cells in each test group was detected by a flow cytometer, and then the survival rate of MSLN target cells was calculated.

[2] = system: MSLN+K562 cells (mixed 1:1 with CEA+K562); assay: Time regulation of in vitro activity of sdCAR-T cells by exogenous switching molecules; type: cell-based, human; settings: switching molecule added at 4 h, sampled every 2 h, effector:target 5:2
Experimental: This example verified that the killing activity of the sdCAR-T cells on tumor cells was subjected to time regulation by the switching molecules, and the selected target cells were MSLN single positive tumor cells and single positive tumor cells of negative control CEA. In the 14-hour test, the cytotoxicity of sdCAR-T cells was tested in real time with and without switching molecules. A total of four test groups were designed, each group had three parallel wells, and the design of test group was the same as that of Example 6.
1) Effector cells and mixed target cells (MSLN^+K562:CEA^+K562, 1:1) were co-incubated at a ratio of 5:2 in a 6-well plate, RPMI1640 (containing 10% FBS) was selected as a co-culture medium, cultured at 37° C. with 5% CO2.
2) 100 μL of cell suspension was taken every 2 h as the culturing begins at the 0 h.
3) Corresponding switching molecules were added at the 4 h.
4) Co-culturing for 10 h (that is, cell suspension was taken 6 times); after the culture, the ratio of MSLN and CEA tumor cells in each test group was detected by a flow cytometer, and then the survival rate of MSLN target cells was calculated.

[3] = system: MSLN+K562 cells (mixed equally with CEA+K562 cells, intraperitoneal); assay: Tumor killing test by sdCAR-T cells in vivo; parameters: species or system nude mice BALB/c; settings: nude mice; for in vivo cytokine (IL-2 and IFNγ) release level / in vivo cytokine (IL-2 and IFNγ) release level compared with Conventional CAR-T cell group: abdominal cavity fluid supernatant; for in vivo cytotoxicity of sdCAR-T cells: intraperitoneal tumor cells, abdominal cavity fluid by flow cytometry
Experimental: Female nude mice BALB/c which were 6-8 weeks old were selected, MSLN^+K562 cells and CEA^+K562 cells were mixed equally and injected intraperitoneally into the nude mice, and then corresponding effector cells and switching molecules were added respectively. Refer to FIG. 19 for details of the in vivo test process. Six test groups were designed, with 6 nude mice in each group. Specific solutions are as follows:
group 1: effector cells are T cells (No CAR) and no switching molecules are added;
group 2: effector cells are the second generation of CAR-T cells (Conventional CAR) specific to MSLN, and no switching molecules are added;
group 3: effector cells are sdCAR-T cells and no switching molecules are added;
group 4: effector cells are sdCAR-T cells, and small molecule HM-3 is added;
group 5: effector cells are sdCAR-T cells and switching molecule FITC is added; and
After the test was completed, the nude mice were euthanized, and then 5 mL of pre-cooled PBS was injected into the abdominal cavities of the nude mice. After the abdominal cavities of the nude mice were rubbed many times, the abdominal cavity fluid was sucked out completely, and centrifuged at a centrifugal force of 800 g for 8 min. The cells were collected, and the percentage of the two tumor cells was measured by flow cytometry, and then the in vivo activity of sdCAR-T cells could be calculated. In addition, the above centrifuged supernatant was collected to measure the release levels of cytokines IL-2 and IFNγ respectively.

K562 tumor cells = assay: Killing curve of K562 tumor cells by puromycin / hygromycin; type: cell-based; settings: 5 consecutive days
Experimental: 1) Low-generation cell strains were resuscitated from liquid nitrogen, and subjected to conventional culture and passaged 5 times, then the cell state was adjusted to a logarithmic growth period.
2) A new 24-well plate was prepared, 50000 K562 tumor cells were inoculated per well for 7 wells in total, and 500 μL of complete culture medium (RPMI1640, 10% FBS) was added per well. The well plate was placed in an incubator at 37° C. with 5% CO2 and cultured overnight.
3) The cell well plate was taken out from the incubator, one well was left free of puromycin, and puromycin with final concentrations of 0.5, 1, 2, 4, and 8 μg/mL were added to the remaining wells respectively.
4) The well plate was placed in an incubator at 37° C. with 5% CO2 for continuous cultivation. The state of cells in the well plate was observed under a microscope every day for 5 consecutive days. And the minimum concentration that can completely kill all cells on the fifth day was taken as the puromycin concentration for subsequent stable cell strain screening.
The method is the same as that of Example 3.4. The concentration gradient of the hygromycin was set to 50, 100, 200, 400 and 800 μg/mL respectively, and the concentration of the hygromycin was finally selected to be 100 μg/mL through the determination of the killing curve.

Compound: O=C1OC2(c3ccc(O)cc3Oc3cc(O)ccc32)c2ccc(N=C=S)cc21 [FITC]
- survival rate of MSLN tumor cells ([1]; effector:mixed target cells 5:2, 22 h, flow cytometry): about 30.98%
- percentage content of homologous target cells MSLN+K562 (green fluorescence) [1]: significantly lower than that at the beginning of the test
- cytotoxicity of sdCAR-T cells after addition of switching molecule [2]: significant cytotoxicity
- in vivo cytokine (IL-2 and IFNγ) release level [3]: release significant cytokine levels
- in vivo cytokine (IL-2 and IFNγ) release level compared with Conventional CAR-T cell group [3]: only half of the level
- in vivo cytotoxicity of sdCAR-T cells [3]: significant cytotoxicity

Compound: COc1ccc(C[C@H](N)C(=O)N[C@H]2[C@@H](O)[C@H](n3cnc4c(N(C)C)ncnc43)O[C@@H]2CO)cc1 [puromycin]
- minimum concentration that can completely kill all cells on the fifth day (concentration selected from the killing curve) (K562 tumor cells): 1 µg/mL

Compound: FHBM: FITC and polypeptide HM-3 coupled to form a bifunctional small molecule; exogenous switching molecule for sdCAR-T cells (IVRRADRAAVPGGGGRGD; also: FITC coupled to HM-3, site not given here)
- percentage content of homologous target cells MSLN+K562 (green fluorescence) [1]: significantly lower than that at the beginning of the test
- cytotoxicity of sdCAR-T cells after addition of switching molecule [2]: significant cytotoxicity
- in vivo cytokine (IL-2 and IFNγ) release level [3]: release significant cytokine levels
- in vivo cytokine (IL-2 and IFNγ) release level compared with Conventional CAR-T cell group [3]: only half of the level
- in vivo cytotoxicity of sdCAR-T cells [3]: significant cytotoxicity
- in vivo cytotoxicity of FHBM treatment group compared with FITC treatment group ([3]; sdCAR-T cells plus switching molecule): better than that of the FITC treatment group

Reference: patent US11932872B2, “Dual chimeric antigen receptor-t cell which can be regulated, construction method therefor and use thereof” (NANJING ANJI BIOLOGICAL TECHNOLOGY CO., LTD, priority 2017, dated 2024)
